Holding throughout (type): in vivo
Experiment [1] concerns PAPRH=Papaver rhoeas L. (common poppy). Briefly: Postemergence field trial, Bielefed, Germany. The method, then:
(§1) Field trials were established in Spain (Banares and Granon) and Germany (Bielefeld) to evaluate the efficacy of Compound 5, Compound 6, and Compound 7. Trials were designed as randomized complete blocks with three to four replicates. Trials were established in winter wheat with natural weed population with plot sizes of 2-2.5 meters (m) by 6-8 m (width×length). The crops were grown using normal cultural practices for fertilization, seeding, and maintenance to ensure good growth of the crop. All herbicide treatments were applied post-emergence with applications made to the crops at the BBCH 21 to 23 growth stage. Herbicides were applied with backpack or bicycle sprayers using air as a propellant. The sprayers utilized flat fan air-induction spray nozzles calibrated to deliver a uniform spray pattern that provided thorough coverage of the foliage using a 200 L/ha spray volume. All treatments were applied with methylated seed oil (MSO) at 1.25% v/v. Phytotoxicity to the weeds was assessed visually at several intervals after application as percent overall control, compared to an untreated control plot. In general, three to four replicates were assessed for each treatment. All treatment results are an average of three or four replicates. Compound 5, Compound 6, and Compound 7 were applied as emulsifiable concentrate (EC) formulations at 100 g ae/L EC, respectively.

For experiment [2], the system named is CENCY=Centaurea cyanus (cornflower). Put plainly: Postemergence field trial, Bielefed, Germany. The method, then: as §1
The next experiment concerns weeds. Put plainly: Herbicidal activity, overall conclusion from greenhouse and field results. The conditions noted are these: summary of Tables 1 to 8. An excerpt:
These new chemical herbicides offer a broader spectrum of weed control, higher activity against weeds, and provide a way to address the management of weeds that developed resistance with respect to herbicides traditionally used to control them.

Experiment [3] relates to KCHSC=Kochia scoparia (L.) Schrad. (Kochia). Briefly: Postemergence field trial, Hanley, Saskatchewan, Canada. The conditions noted are these: 66DAAA. The procedure:
(§2) Field trials were established in Canada (in Ellerslie, Alberta; Nisku, Alberta and Hanley, Saskatchewan) to evaluate the efficacy of Compound 5, Compound 6, and Compound 7. Trials were designed as randomized complete blocks with four replicates. Trials were established in spring wheat with natural weed population with plot sizes of 2-3 meters (m) by 8-10 m (width×length). The crops were grown using normal cultural practices for fertilization, seeding, and maintenance to ensure good growth of the crop.
(§3) All herbicide treatments were applied post-emergence with applications made to the crops at BBCH (Phenological development stages of a plant) 14 to 22 growth stage. Herbicides were applied with backpack or bicycle sprayers using carbon dioxide (CO2) as a propellant. The sprayers utilized flat fan air-induction spray nozzles calibrated to deliver a uniform spray pattern that provided thorough coverage of the foliage using a 100 L/ha spray volume. All treatments were applied with methylated seed oil (MSO) at 1.25% v/v. Phytotoxicity to the weeds was assessed visually at several intervals after application as percent overall control, compared to an untreated control plot. In general, four replicates were assessed for each treatment. All treatment results are an average of four replicates.
(§4) Compound 5, Compound 6 and Compound 7 were applied as emulsifiable concentrate (EC) formulations at 100 g ae/L EC, respectively.

Experiment [4] relates to CHEAL=Chenopodium album L. (common lambsquarters). The experiment is described as above. The conditions noted are these: 66DAAA. The method, then:
as §2, §3, §4

Experiment [5] concerns POLCO=Polygonum convolvulus L. (wild buckwheat). The experiment is described as above. The following applies: 66DAAA. The procedure:
as §2, §3, §4

SMILES strings stand for the structures.

In the case of `C#CCOC(=O)c1nc(-c2ccc3cc[nH]c3c2F)c(F)c(N)c1Cl` [Compound 5, prop-2-yn-1-yl 4-amino-3-chloro-5-fluoro-6-(7-fluoro-1H-indol-6-yl)picolinate], the “Percent (%) Visual Control PAPRH 85DAAA” value in experiment [1] (5 g ae/ha) was 92.5%; in experiment [1] (10 g ae/ha), 97.3%; in experiment [1] (20 g ae/ha), 98.8%. For the same compound, the “Percent (%) Visual Control CENCY 85DAAA” value is given as 65% in experiment [2] (5 g ae/ha), 87.5% in experiment [2] (10 g ae/ha) and 95% in experiment [2] (20 g ae/ha). For the same compound, the “herbicidal activity (overall conclusion)” value with weeds is listed as “superior herbicidal activity over Compound 7”.
Regarding `N#CCOC(=O)c1nc(-c2ccc3cc[nH]c3c2F)c(F)c(N)c1Cl` [Compound 6, cyanomethyl 4-amino-3-chloro-5-fluoro-6-(7-fluoro-1H-indol-6-yl)picolinate], the “Percent (%) Visual Control PAPRH 85DAAA” value was 94.5% in experiment [1] (5 g ae/ha), 97.3% in experiment [1] (10 g ae/ha) and 99.8% in experiment [1] (20 g ae/ha). In addition, the “Percent (%) Visual Control CENCY 85DAAA” value in experiment [2] (5 g ae/ha) was determined as 60%; in experiment [2] (10 g ae/ha), 92.5%; in experiment [2] (20 g ae/ha), 97%. The “herbicidal activity (overall conclusion)” value in the experiment with weeds is “superior herbicidal activity over Compound 7”. Besides, the “Percent (%) Visual Control KCHSC” value in experiment [3] (10 g ae/ha) was 62%; in experiment [3] (20 g ae/ha) it was 81.5%; in experiment [3] (40 g ae/ha), 92.5%. Besides, the “Percent (%) Visual Control CHEAL” value in experiment [4] (10 g ae/ha) was determined as 95%; in experiment [4] (20 g ae/ha), 98.3%; in experiment [4] (40 g ae/ha), 99%. In addition, the figures for the “Percent (%) Visual Control POLCO” value in experiment [5] (10 g ae/ha), in experiment [5] (20 g ae/ha) and in experiment [5] (40 g ae/ha) were 47.5%, 68.8% and 85.8%, respectively.
For `Nc1c(F)c(-c2ccc3cc[nH]c3c2F)nc(C(=O)OCc2ccccc2)c1Cl` [Compound 7, benzyl 4-amino-3-chloro-5-fluoro-6-(7-fluoro-1H-indol-6-yl)picolinate, reference compound], the “Percent (%) Visual Control PAPRH 85DAAA” value in experiment [1] (5 g ae/ha) is listed as 66.3%; in experiment [1] (10 g ae/ha), 78.8%; in experiment [1] (20 g ae/ha) it was 80%. The “Percent (%) Visual Control CENCY 85DAAA” value in experiment [2] (5 g ae/ha) came to 32.5%; in experiment [2] (10 g ae/ha) it was 53.8%; in experiment [2] (20 g ae/ha) it was 62.5%. The “Percent (%) Visual Control KCHSC” value in experiment [3] (10 g ae/ha) is recorded as 45%; in experiment [3] (20 g ae/ha), 72%; in experiment [3] (40 g ae/ha), 78.8%. In addition, the “Percent (%) Visual Control CHEAL” value in experiment [4] (10 g ae/ha) amounted to 95.5%; in experiment [4] (20 g ae/ha) it was 98.5%; in experiment [4] (40 g ae/ha), 98.8%. Further, the “Percent (%) Visual Control POLCO” value in experiment [5] (10 g ae/ha) turned out to be 46.3%; in experiment [5] (20 g ae/ha), 63.3%; in experiment [5] (40 g ae/ha), 70%.

The values are drawn from patent publication US11363816B2, “4-amino-6-(heterocyclic)picolinates and 6-amino-2-(heterocyclic)pyramidine-4-carboxylates and their use as herbicides” (Dow AgroSciences LLC, priority 2017, dated 2022).
